Reference: patent publication US9868973B2, “Method for optimizing post-translational modifications on recombinant proteins” (STC Biologics, Inc., priority 2014, dated 2018)

System: fucosyl transferase
Test: Modulation of glycosylation PTMs of trastuzumab biosimilar in CHO cells by FTI (Methods 1 and 2), 2AB glycan analysis
Type: cell-based, Chinese Hamster
Description: To obtain a recipe for production of a biosimilar with a similar glycosylation pattern to the original Herceptin®, CHO cells engineered to express the recombinant protein with an amino acid sequence identical to trastuzumab were first grown in the growth media without any inhibitors to establish a Baseline. The glycan species were analyzed using 2AB glycan method. It was observed that Peak 2 (G0) and Peak 6 (G1), and Peak 7 (mannose-5 and G1′) PTMs were lower for the biosimilar than their target PTMs.
G0, G1 and G1′ PTMs are non-fucosylated PTMs and are controlled by a host protein called fucosyl transferase and the mannose-5 PTM is controlled by the host protein known as α-mannosidase I. Fucosyl transferase can be inhibited by a variety of fucosyltransferase inhibitors shown in FIG. 2, α-mannosidase I can be inhibited by kifunensine.
Briefly to obtain trastuzumab with PTMs in the target range, cells were placed in growth media and treated with 2F-Peracetyl-Fucose (FTI) on day 7 at different concentrations (20 μM, 10 μM, 5 μM, 1 μM, 0.1 μM) to identify optimal drug concentration. On day 12 cells were harvested and the trastuzumab biosimilar isolated. […] FTI concentrations used to reach target PTMs are cell specific so it is expected that different concentrations of the FTI or other modulators would be required when a starting cell line is different from the one described in this example.
Different treatment methods such as Method 2 can be used to obtain target PTMs. For example, FTI can be added on a daily basis starting on day 5 (Table 3, Method 2) rather than on Day 7.

[1] = Method 1: 10 μM FTI on Day 7, trastuzumab biosimilar from CHO cells
[2] = Method 2: […]-[…] FTI every day starting at day 5, trastuzumab biosimilar from CHO cells

Question: For `CC(=O)OC1O[C@@H](C)[C@@H](OC(C)=O)[C@@H](OC(C)=O)[C@@H]1F` (stereo partly shown) [FTI, 2F-Peracetyl-Fucose], which “G0, G1 and G1′ PTM levels versus target PTM range” value (10 μM FTI on day 7, harvest day 12) is on record?
Answer: Its value is “matched the target PTM range”.

Question: What about the “G0, G1 and G1′ PTM levels versus target PTMs” value (20 μM FTI on day 7, harvest day 12) of the same molecule?
Answer: The value was “increase of G0, G1 and G1′ PTMs above that of target PTMs”.

Question: What about the “PTMs versus target range” value (FTI at concentrations lower than 8 μM, day 7) of the same molecule?
Answer: Its value is “outside the target range”.

Question: And the “Glycan Species Peak 1” value [1]?
Answer: Its value is 1.5%.

Question: What about the “Glycan Species Peak 2-G0” value [1] of the same molecule?
Answer: The value was 4%.

Question: And the “Glycan Species Peak 3” value [1]?
Answer: The value was 1.5%.

Question: What about the “Glycan Species Peak 4-G0F” value [1] of the same molecule?
Answer: Its value is 44%.

Question: And the “Glycan Species Peak 5” value [1]?
Answer: Its value is 0.8%.

Question: And the “Glycan Species Peak 6-G1” value [1]?
Answer: The value was 1.8%.

Question: What about the “Glycan Species Peak 7- G1F/mannose 5” value [1] of the same molecule?
Answer: The value was 1.2%.

Question: What about the “Glycan Species Peak 8- (1, 6)G1F” value [1] of the same molecule?
Answer: Its value is 26%.

Question: What about the “Glycan Species Peak 9 (1, 3)G1F” value [1] of the same molecule?
Answer: The value was 11%.

Question: And the “Glycan Species Peak 10 G2F” value [1]?
Answer: The value was 6.5%.

Question: What about the “Glycan Species Peak 11” value [1] of the same molecule?
Answer: Its value is 0.2%.

Question: And the “Glycan Species Peak 12” value [1]?
Answer: The value was 0.25%.

Question: What about the “Glycan Species Peak 13” value [1] of the same molecule?
Answer: The value was 0.2%.

Question: What about the “Glycan Species Peak 14” value [1] of the same molecule?
Answer: The value was 0.2%.

Question: And the “Glycan Species Peak 15” value [1]?
Answer: Its value is 0.2%.

Question: And the “Glycan Species Peak 4-G0F” value [2]?
Answer: Its value is 44%.

Question: And the “Glycan Species Peak 8- (1, 6)G1F” value [2]?
Answer: Its value is 26%.

Question: And the “Glycan Species Peak 9 (1, 3)G1F” value [2]?
Answer: Its value is 11%.

Question: What about the “Glycan Species Peak 10 G2F” value [2] of the same molecule?
Answer: The value was 6.5%.
